Data published in patent US20250041245A1, “ENDOXIFEN FOR TREATMENT OF CANCERS” (Atossa Therapeutics, Inc., priority 2021, published 2025).
“And” between values parts separate entries of the source, which are not always exact repeats. Equal entries are not always repeated. “Also recorded” adds a separate entry of the source.

What was measured:
Type in all cases: cell-based, human
[1] = system: patient-derived tumor organoids (PDTOs), leiomyosarcoma; assay: Endoxifen screen in PDTOs: leiomyosarcoma; parameters: key to Personalization Category: Personalization categories range from High, Good, Moderate, Low, to None; Personalization categories range from High, Good, Moderate, Low, to None; Personalization categories range from High, Good, Moderate, Low, to None; Personalization categories range from High, Good, Moderate, Low, to None; Personalization categories range from High, Good, Moderate, Low, to None; key to Sensitivity Category: Sensitivity categories range from High, Good, Moderate, Low, to None; Sensitivity categories range from High, Good, Moderate, Low, to None; Sensitivity categories range from High, Good, Moderate, Low, to None; Sensitivity categories range from High, Good, Moderate, Low, to None; Sensitivity categories range from High, Good, Moderate, Low, to None; AUC: unit not given beside the values; settings: each line one patient sample
Procedure: (§1) This example describes screening endoxifen in patient-derived tumor organoids. Endoxifen was tested as a single agent on tumor organoids derived from patients diagnosed with various cancer types using a personalized cancer treatment screening assay (PARIS© Test, SEngine Precision Medicine). The screen utilized patient-derived tumor organoids (PDTOs) along with high-throughput drug screening and machine learning-guided data analysis to quantify the efficacy of endoxifen against samples derived from individual patients diagnosed with various cancer types. PDTOs are self-organizing, three-dimensional organoid structures that recapitulate structural, functional, and genomic aspects of in vivo organs. The PDTOs were grown in culture from patient tumor biopsy samples.
(§2) Fresh patient biopsy samples received following surgery were cleaned and purified. Immune cells (e.g., lymphocytes, blood cells), cancer-associated fibroblasts, and other non-tumor cells were removed to establish pure PDTOs for endoxifen testing. The tumor organoids were grown and expanded by supplying organ- and patient-specific growth factors and nutrients. The PDTOs were treated with increasing concentrations of endoxifen ranging from about 30 nM to about 10 μM, and the drug response was measured using a luminescence readout. A lower luminescence was indicative of a stronger drug response.
(§3) The results were analyzed using a “SEngine Precision Medicine” (SPM) scoring system to assess the sensitivity and personalization of each tumor organoid to endoxifen. The SPM score correlates with clinical outcomes, such that a higher SPM score for a specific PDTO-drug combination predicts a more favorable clinical outcome following treatment of the corresponding patient with the tested drug.
(§4) This example describes testing endoxifen efficacy against 17 distinct cancer types in patient-derived tumor organoids (PDTOs). Screening of PDTOs was performed as described in EXAMPLE 1. For each PDTO sample, the drug response was measured using a luminescent readout over a range of endoxifen concentrations. The drug response was evaluated based on the area under the fitted dose response curve (AUC) and the SPM scoring system. AUC values were normalized for each PDTO. Briefly, data points at each drug concentration were first normalized to a negative control, then a dose response drug curve was approximated using a four-parameter logistic model fitted to the normalized data points. The area under the curve was calculated from the normalized curve. Normalization allowed for comparison of AUC values between patient samples. The SPM scores were based on machine learning models that incorporate values for how well the drug kill patient cells (sensitivity metric), the relative drug responses of a patient to all other patients in a sample database (personalization metric), and knowledge of clinical outcomes for patients that had been evaluated with the personalized cancer screening assay (PARIS® Test, SEngine Precision Medicine).
(§5) The SPM scoring system evaluated whether a PDTO was unresponsive or responsive to endoxifen and the degree of drug response for PDTOs that were responsive to endoxifen. […] The sensitivity category was determined from the sensitivity metric and is a measure of overall cell death of a patient's cells in response to endoxifen at six concentrations. […]

[2] = system: patient-derived tumor organoids (PDTOs), endometrial carcinoma; assay: Endoxifen screen in PDTOs: endometrial carcinoma; parameters: key to Personalization Category: Personalization categories range from High, Good, Moderate, Low, to None; Personalization categories range from High, Good, Moderate, Low, to None; Personalization categories range from High, Good, Moderate, Low, to None; Personalization categories range from High, Good, Moderate, Low, to None; Personalization categories range from High, Good, Moderate, Low, to None; key to Sensitivity Category: Sensitivity categories range from High, Good, Moderate, Low, to None; Sensitivity categories range from High, Good, Moderate, Low, to None; Sensitivity categories range from High, Good, Moderate, Low, to None; Sensitivity categories range from High, Good, Moderate, Low, to None; Sensitivity categories range from High, Good, Moderate, Low, to None; AUC: unit not given beside the values
Procedure: as §1, §2
(§6) The results were analyzed using a “SEngine Precision Medicine” (SPM) scoring system to assess the sensitivity and personalization of each tumor organoid to endoxifen. […]
as §4, with “Screening of PDTOs was performed as described in EXAMPLE 1.” left out, “AUC values were normalized for each PDTO. Briefly, data points at each drug concentration were first normalized to a negative control, then a dose response drug curve was approximated using a four-parameter logistic model fitted to the normalized data points.” left out, “Normalization allowed for comparison of AUC values between patient samples.” left out
as §5

[3] = system: patient-derived tumor organoids (PDTOs), ovarian cancer; assay: Endoxifen screen in PDTOs: ovarian cancer; parameters: AUC: unit not given beside the values; settings: each line one patient sample
Procedure: as §1
as §2, with “The tumor organoids were grown and expanded by supplying organ- and patient-specific growth factors and nutrients.” left out
as §6
This example describes testing endoxifen efficacy against 17 distinct cancer types in patient-derived tumor organoids (PDTOs). […] For each PDTO sample, the drug response was measured using a luminescent readout over a range of endoxifen concentrations. The drug response was evaluated based on the area under the fitted dose response curve (AUC) and the SPM scoring system. […] The area under the curve was calculated from the normalized curve. […]
The SPM scoring system evaluated whether a PDTO was unresponsive or responsive to endoxifen and the degree of drug response for PDTOs that were responsive to endoxifen. […]

[4] = system: patient-derived tumor organoids (PDTOs), colorectal cancer; assay: Endoxifen screen in PDTOs: colorectal cancer; parameters: key to Personalization Category: Personalization categories range from High, Good, Moderate, Low, to None; Personalization categories range from High, Good, Moderate, Low, to None; Personalization categories range from High, Good, Moderate, Low, to None; Personalization categories range from High, Good, Moderate, Low, to None; Personalization categories range from High, Good, Moderate, Low, to None; key to Sensitivity Category: Sensitivity categories range from High, Good, Moderate, Low, to None; Sensitivity categories range from High, Good, Moderate, Low, to None; Sensitivity categories range from High, Good, Moderate, Low, to None; Sensitivity categories range from High, Good, Moderate, Low, to None; Sensitivity categories range from High, Good, Moderate, Low, to None; AUC: unit not given beside the values; settings: each line one patient sample
Procedure: as §1, §2, §3, §4
The SPM scoring system evaluated whether a PDTO was unresponsive or responsive to endoxifen and the degree of drug response for PDTOs that were responsive to endoxifen. The SPM scoring system generated metrics an SPM score, predictive of clinical outcome, overall drug response (response category), drug sensitivity (sensitivity category), and drug personalization (personalization category). SPM scores ranged from 1-15, corresponding to the following drug response categories: no response (SPM 1-8), low response (SPM 9), moderate response (SPM 10-11), good response (SPM 12-13), and exceptional response (SPM 14-15). […] Moderate to good drug responses (SPM 10-13) may indicate that a drug has clinical relevance, possibly in combination with other drugs. The sensitivity category was determined from the sensitivity metric and is a measure of overall cell death of a patient's cells in response to endoxifen at six concentrations. […]

[5] = normalized area under fitted dose response curve

- IC50 ([3]; four-parameter logistic fit): 9.26 µM and 8.13 µM and 6.7 µM and 4.87 µM and 7.26 µM and 9.3 µM and 3.08 µM and 6.91 µM and 9.33 µM and 3.45 µM and 9.41 µM and 6.22 µM and 9.47 µM and 6.17 µM and 7.21 µM and 6.13 µM and 4.14 µM and 6.06 µM and 3.59 µM and 5.48 µM and 3.69 µM and 4.28 µM and 9.16 µM
- IC50 ([4]; four-parameter logistic fit): 7.16 µM and 9.23 µM and 7.23 µM and 5.61 µM and 10 µM and 5.65 µM and 4.72 µM and 3.62 µM and 8.86 µM and 5.67 µM and 6.74 µM and 9.61 µM and 9.09 µM
Structure (SMILES): CC/C(=C(\c1ccc(O)cc1)c1ccc(OCCNC)cc1)c1ccccc1 [Endoxifen, 4-hydroxy-N-desmethyltamoxifen]
- Personalization Category [1]: None
- Response Category [1]: None (no response (SPM 1-8))
- Sensitivity Category [1]: None
- AUC [1, 5]: 0.9719 and 1.0448 and 1.0001
- SPM Score ([1]; score range 1-15): 1
- Personalization Category ([2]; patient 39): None
- Sensitivity Category ([2]; patient 39): None
- AUC ([2]; patient 39, normalized area under fitted dose response curve): 1.0102
- SPM Score ([2]; patient 39, score range 1-15): 1
- AUC [3, 5]: 0.9109 and 1.0762 and 0.8038 and 0.9291 and 0.9081 and 0.9209 and 1.0105 and 0.8454 and 0.8909 and 0.9267 and 0.9074 and 0.8343 and 0.9838 and 0.8320 and 1.0057 and 0.9637 and 1.1417 and 1.0287 and 0.8785 and 0.8853 and 0.9968 and 0.9220 and 0.8174 and 0.9760 and 0.8739 and 0.8607 and 1.0172 and 0.9895 and 0.9934
- SPM Score ([3]; score range 1-15): 1 (15×) and 11 (2×) and 5 (3×) and 9 (6×) and 10 (2×) and 4
- Personalization Category [4]: None and Low and Good and Moderate
- Response Category [4]: None (no response (SPM 1-8)); also recorded: Low (low response (SPM 9)); also recorded: Moderate (moderate response (SPM 10-11))
- Sensitivity Category [4]: None and Low
- AUC [4, 5]: 0.9517 and 0.9919 and 1.0338 and 0.9902 and 1.0377 and 0.9305 and 0.8841 and 0.8215 and 0.9346 and 0.8357 and 0.8866 and 0.9755 and 0.9804 and 0.9752 and 1.0467
- SPM Score ([4]; score range 1-15): 1 (9×) and 3 and 5 and 9 (2×) and 11 and 10
